In one experiment the test system is HL-60. The experiment in a line: Cytotoxicity against HL60 cells after 72 hrs by dye exclusion assay. The settings on record: Homo sapiens, HL-60, 72 h. The class given is functional, cell-based.
The next experiment deals with Enterococcus faecalis. The experiment in a line: Antimicrobial activity against Enterococcus faecalis ATCC 29212. It is filed as functional.
A further experiment has as its system Candida albicans. The experiment in a line: Antimicrobial activity against Candida albicans ATCC 10231 at 37.5 ug/mL by MTT reduction assay. It is filed as functional, organism-based.
In experiment [1] the test system is Escherichia coli. The experiment in a line: Antimicrobial activity against Escherichia coli NCTC 8196. It is filed as functional.
The subject of experiment [2] is Staphylococcus aureus. The experiment in a line: Growth inhibition of Staphylococcus aureus ATCC 29213 at 300 ug/mL. The class given is functional, organism-based.
In the next experiment the test system is Pseudomonas aeruginosa. The experiment in a line: Antimicrobial activity against Pseudomonas aeruginosa NCTC 6749. It is filed as functional.
Experiment [3] concerns Staphylococcus epidermidis. The experiment in a line: Growth inhibition of Staphylococcus epidermidis ATCC 12228 at 300 ug/mL. The class given is functional, organism-based.
Experiment [4] concerns Staphylococcus epidermidis. The experiment in a line: Growth inhibition of Staphylococcus epidermidis ATCC 12228 at 150 ug/mL. It is filed as functional, organism-based.
The subject of experiment [5] is Staphylococcus aureus. Description: Growth inhibition of Staphylococcus aureus ATCC 29213 at 150 ug/mL. It is filed as functional, organism-based.
The nature of experiment [6]: Cytotoxicity against adriamycin-resistant HL60/ADR cells expressing MRP1 after 72 hrs by dye exclusion assay. It is filed as functional, cell-based. The settings on record: Homo sapiens.
Experiment [7] deals with Escherichia coli. The experiment in a line: Antimicrobial activity against Escherichia coli NCTC 8196 at 300 ug/mL. It is filed as functional, organism-based.

Structures are written as SMILES. Converted amounts (≈) assume the structure as drawn. The source made the active and inactive calls. The calls are words filed in the database; no cut-off is given here. Some results are limits rather than exact numbers.

Regarding `COc1cccc2c1C(=O)c1c(O)c3c(c(O)c1C2=O)C[C@@](O)(C(=O)CO)C[C@@H]3O[C@H]1C[C@H](N)[C@H](O)[C@H](C)O1` [DOXORUBICIN], in the experiment on HL-60, the midpoint of inhibition, the IC50, lay at 0.013 µM.
As to `C=C1C(=O)ON(C)C1C(C)CCC` (stereo not given), the MIC with Enterococcus faecalis was not below 300 µg/mL; with Escherichia coli [1], 75 µg/mL (≈ 409 µM); in the experiment with Pseudomonas aeruginosa, 300 µg/mL (≈ 1640 µM). Further, the outcome (with Candida albicans; in the experiment with Staphylococcus aureus [2]; in experiment [3]; in experiment [4]; in the experiment on Staphylococcus aureus [5]) was Active. The IC50 is 4.1 µM with HL-60 and 2.5 µM in [6].
With `C=C1C(=O)ON(C)C1c1ccc(C)cc1` (stereo not given), the minimal inhibitory concentration (MIC) in the experiment with Enterococcus faecalis is not below 300 µg/mL; in the experiment on Pseudomonas aeruginosa, 300 µg/mL (≈ 1480 µM). Besides, the outcome (with Candida albicans; in the experiment on Staphylococcus aureus [2]; in [3]; in experiment [4]; with Staphylococcus aureus [5]) was Active. In addition, in the experiment on Escherichia coli [7], the result was inactive. In experiment [6], this compound came in with an IC50 of 6 µM.
